Experimental data: patent US8669378B2, “Process for synthesizing epicconone analogs” (Universite de Rouen, priority 2009, dated 2014)

How the values were obtained:
Type in all cases: physicochemical
[1] = Absorbance of the adducts with butylamine in acetonitrile; settings: Bioconjugated molecule (BuNH2) in CH3CN; for λ UV (nm), second maximum: longer-wavelength absorption maximum, used for excitation; for λ UV (nm), first maximum: shorter-wavelength absorption maximum
Method: (§1) Apparatus: • Acetonitrile: VWR HPLC quality • Micropipette: 5 μl, 10 μl, 200 μl, 1000 μl, • Eppendorf: Safe lock tube PCR • UV cuvette: Varian-Quartz 10 mm thick • Fluorescence cuvette: Hellma-Quartz 10 mm thick • Vortex: Bender & Hobein-Genie 2 • Centrifuge: Baky Bug • Absorbance spectrophotometer: Varian-Cary 50 scan • Fluorescence spectrophotometer: Varian-Cary Eclipse • Thermostated bath: Varian-Cary single cell peltier accessory Stock Solution:
(§2) Approximately exactly 1 to 2 mg of compound Ia-Io are weighed out in a 1.5 mL Eppendorf tube. The stock solutions are then prepared by adding exactly 1 mL of acetonitrile and the Eppendorf tubes are then stored protected from light.
30 μl of stock solution are placed in a 1.5 mL Eppendorf tube. At room temperature, 10 μl (or 30 μl in the case of Ik) of a 0.15 M solution of butylamine/acetonitrile are added and the medium is stirred by vortex and then centrifuged. After diluting to 1 mL by adding 960 μl of acetonitrile (or 940 μl in the case of Ik), the clear solution is transferred into a UV cuvette and then made up to 2 mL with acetonitrile. The analysis is then performed after producing a “blank” spectrum with a pure acetonitrile solution.

[2] = Fluorescence of the adducts with butylamine in acetonitrile; parameters: Δ Stokes: unit not given here; settings: Bioconjugated molecule (BuNH2) in CH3CN; for Δ Stokes: emission minus excitation wavelength; for λ fluo (λ excitation) (nm): excitation at maximum-absorption wavelength; for Intensity normalized to 50 μM: fluorescence intensity
Method: as §1, §2
Two protocols were implemented for the fluorescence tests. • For compounds Ii-Ik: 125 μL of the preceding solution (absorbance solution) are diluted to 1.25 mL by adding 1125 μl of acetonitrile to a fluorescence cuvette. The analysis is then performed on the fluorescence spectrophotometer by excitation at the respective maximum-absorption wavelengths. • For compounds Ia-Ih and Il-Io: 1250 μl of the preceding solution (absorbance) are placed in a fluorescence cuvette. The analysis is then performed on the fluorescence spectrophotometer by excitation at the respective maximum-absorption wavelengths.

[3] = Photobleaching of stained standard proteins in gel under UV transilluminator; settings: protein-stained gel, first-order exponential decay fit, deduced from FIG. 1
Method: The compounds were dissolved at 10 mg/mL in DMSO. The stock solutions obtained were diluted to 1 mg/mL in water and divided into 100 μL aliquots for storage. All the products and aliquots were stored at −80° C.
Standard proteins (SDS labeling kit-low molecular weight sold by GE, 17-0446-01) were diluted in an LDS buffer (250 μL Invitrogen 4×LDS buffer, 100 μL of 1 M DDT, 650 μL of water) to create serial dilutions ranging from 128 ng/STI band to 125 pg/STI band.
5 μL of each protein solution were loaded onto NuPAGE® Novex® 12% bis-tris gels (1.0 mm thick, 12 wells, Invitrogen NP0342BOX). The gels were subjected to a current of 150 V for approximately 65 minutes using MES buffer (50 mM MES, 50 mM tris, 1 mM EDTA, 0.1% SDS, pH 7.3) so that the buffer front arrives just up to the gel. After eluting the dye, the gels were fixed for 1 to 17 hours (100 mL of fixing solution with 15% EtOH (v/v) and 1% citric acid) in individual lanes. The fixing solution used was replaced with fresh solution one hour after staining. The gels were stained for 1 hour in 50 mL of sodium borate buffer at 100 mM (pH 10.9) containing either […] of LavaPurple gel dye (Fluorotechnics; LP-011005) or one of the test compounds (50 μL for a 1 mg/mL solution). The gels were treated with 100 mL of 15% ethanol and then washed with 100 mL of fixing solution for 30 minutes.
Imaging was performed using a Typhoon Trio imager (excitation: 532 nm, emission filter: 610BP30, 540 PMT, resolution: 100 μm) using a normal sensitivity. The recorded image corresponds to the scan at time zero. The gels were then placed in a UV transilluminator for 60, 146, 240, 330, 630 and 990 seconds (total exposure time), a Typhoon scanner image being recorded between each exposure. The volumes of the bands were analyzed using the Image-Quant TL software, and all the band volumes were normalized with phosphorylase B. The photobleaching was analyzed by graphically representing the band volumes as a function of the exposure time (GraphPad Prism v4 software) and by fitting the curve to a first-order exponential decay to determine a pseudofirst-order rate constant.
FIG. 1 represents the decrease of the normalized residual signal of compounds (Ii), (Ij), (Ik), (In) and (Io) according to the invention and of epicocconone.
From this FIGURE, the half-life times of the compounds may be deduced: […]

Structure (SMILES) | λ UV (nm), second maximum [1] | λ UV (nm), first maximum [1] | Δ Stokes [2] | λ fluo (λ excitation) (nm) [2] | Intensity normalized to 50 μM [2] | Half-life time [3]
CC1CC2=CC3=C(C(=O)c4ccccc4O)C(=O)OC3(C)C(=O)C2=CO1 (centres unmarked) [Ig, 3-(2-hydroxybenzoyl)-6,9a-dimethyl-5,6-dihydro-9aH-furo[3,2-g]isochromene-2,9-dione] | 463 nm | 350 nm | 134 | 597 nm | 32 | –
CC1CC2=CC3=C(C(=O)c4ccccc4)C(=O)OC3(C)C(=O)C2=CO1 (centres unmarked) [Ia, 3-benzoyl-6,9a-dimethyl-5,6-dihydro-9aH-furo[3,2-g]isochromene-2,9-dione] | 472 nm | 351 nm | 113 | 585 nm | 98 | –
CC1(C)CC2=CC3=C(/C(O)=C/C(=O)c4ccc(Cl)nc4)C(=O)OC3(C)C(=O)C2=CO1 (centres unmarked) [In, 3-[3-(6-chloro-pyridin-3-yl)-1-hydroxy-3-oxopropenyl]-6,6,9a-trimethyl-5,6-dihydro-9aH-furo[3,2-g]isochromene-2,9-dione] | 525 nm | 363 nm | 87 | 612 nm | 2764 | 33.1 min
COc1ccccc1C(=O)C1=C2C=C3CC(C)OC=C3C(=O)C2(C)OC1=O (centres unmarked) [If, 3-(2-methoxybenzoyl)-6,9a-dimethyl-5,6-dihydro-9aH-furo[3,2-g]isochromene-2,9-dione] | 469 nm | 351 nm | 120 | 589 nm | 147 | –
CC1CC2=CC3=C(C(=O)c4ccco4)C(=O)OC3(C)C(=O)C2=CO1 (centres unmarked) [Ic, 3-(furan-2-carbonyl)-6,9a-dimethyl-5,6-dihydro-9aH-furo[3,2-g]isochromene-2,9-dione] | 465 nm | 352 nm | 128 | 593 nm | 193 | –
CC1(C)CC2=CC3=C(C(=O)/C=C(\O)c4ccccc4)C(=O)OC3(C)C(=O)C2=CO1 (centres unmarked) [Ik, (Z)-3-(3-hydroxy-3-phenylacryloyl)-6,6,9a-trimethyl-5,6-dihydro-9aH-furo[3,2-g]isochromene-2,9-dione] | 512 nm | 365 nm | 94 | 606 nm | 4157 | 22.4 min
COc1ccc(C(=O)C2=C3C=C4CC(C)OC=C4C(=O)C3(C)OC2=O)cc1 (centres unmarked) [Ib, 3-(4-methoxybenzoyl)-6,9a-dimethyl-5,6-dihydro-9aH-furo[3,2-g]isochromene-2,9-dione] | 452 nm | 351 nm | 134 | 586 nm | 205 | –
COc1ccc(/C(O)=C/C(=O)C2=C3C=C4CC(C)OC=C4C(=O)C3(C)OC2=O)cc1 (centres unmarked) [Ii, (Z)-3-(3-hydroxy-3-(4-methoxyphenyl)acryloyl)-6,9a-dimethyl-5,6-dihydro-9aH-furo[3,2-g]isochromene-2,9-dione] | 497 nm | 366 nm | 99 | 596 nm | 3020 | 18.3 min
COc1ccc(C(=O)C2=C3C=C4CC(C)(C)OC=C4C(=O)C3(C)OC2=O)cc1 (centres unmarked) [Ih, 3-(4-methoxybenzoyl)-6,6,9a-trimethyl-5,6-dihydro-9aH-furo[3,2-g]isochromene-2,9-dione] | 460 nm | 354 nm | 130 | 590 nm | 155 | –
CC1CC2=CC3=C(C(=O)c4ccc5ccccc5c4)C(=O)OC3(C)C(=O)C2=CO1 (centres unmarked) [Id, 3-(2-naphthoyl)-6,9a-dimethyl-5,6-dihydro-9aH-furo[3,2-g]isochromene-2,9-dione] | 464 nm | 351 nm | 106 | 570 nm | 173 | –
CC(C(=O)C1=C2C=C3CC(C)(C)OC=C3C(=O)C2(C)OC1=O)C(=O)c1ccccc1 (centres unmarked) [Im, 6,6,9a-trimethyl-3-(2-methyl-3-oxo-3-phenylpropanoyl)-5,6-dihydro-9aH-furo[3,2-g]isochromene-2,9-dione] | 489 nm | 351 nm | 102 | 591 nm | 202 | –
COc1ccc(C(=O)C(C)C(=O)C2=C3C=C4CC(C)(C)OC=C4C(=O)C3(C)OC2=O)cc1 (centres unmarked) [Il, 3-(3-(4-methoxyphenyl)-2-methyl-3-oxopropanoyl)-6,6,9a-trimethyl-5,6-dihydro-9aH-furo[3,2-g]isochromene-2,9-dione] | 498 nm | 350 nm | 90 | 588 nm | 264 | –
COc1ccc(/C(O)=C/C(=O)C2=C3C=C4CC(C)(C)OC=C4C(=O)C3(C)OC2=O)cc1 (centres unmarked) [Ij, (Z)-3-(3-hydroxy-3-(4-methoxyphenyl)acryloyl)-6,6,9a-trimethyl-5,6-dihydro-9aH-furo[3,2-g]isochromene-2,9-dione] | 505 nm | 366 nm | 98 | 603 nm | 3988 | 6.6 min
COCCOCCOc1ccc(C(=O)C2=C3C=C4CC(C)OC=C4C(=O)C3(C)OC2=O)cc1 (centres unmarked) [Ie, 3-(4-(2-(2-methoxyethoxy)ethoxy)benzoyl)-6,9a-dimethyl-5,6-dihydro-9aH-furo[3,2-g]isochromene-2,9-dione] | 453 nm | 349 nm | 137 | 590 nm | 120 | –
